The text below walks through data of ChEMBL document CHEMBL4616607, “3D proteome-wide scale screening and activity evaluation of a new ALKBH5 inhibitor in U87 glioblastoma cell line” (Bioorg Med Chem, 2020).

The test system of assay [1] is A549. The assay is described as follows: Antiinvasive activity against human A549 cells assessed as reduction in cell invasion measured after 24 hrs using Diff-quick staining by light microscopy based Boyden chamber assay. It counts as functional.
In assay [2] the test system is A549. The assay is described as follows: Cytotoxicity against human A549 cells assessed as reduction in cell viability measured after 24 hrs by MTT assay. In kind it is functional, cell-based.
Assay [3] relates to A549. The assay is described as follows: Antimigratory activity against human A549 cells assessed as reduction in cell migration at 25 uM measured after 24 hrs by scratch wound healing assay. It counts as functional, cell-based.
Assay [4] concerns NCI-H460. The assay is described as follows: Cytotoxicity against human H460 cells assessed as effect on cell viability at 1 to 50 uM measured after 24 hrs by MTT assay. In kind it is functional, cell-based. (Formazan colour is commonly taken as a measure of viable cells.)
Assay [5] deals with NCI-H460. The assay is described as follows: Antiinvasive activity against human H460 cells assessed as reduction in cell invasion measured after 24 hrs using Diff-quick staining by light microscopy based Boyden chamber assay. It counts as functional.
Assay [6] concerns the target RNA demethylase ALKBH5 (Homo sapiens) (UniProt Q6P6C2). The assay is described as follows: Inhibition of ALKBH5 demethylase activity in human U87MG cells assessed as decrease in CD73 expression measured after 1 to 24 hrs by Western blot analysis. In kind it is cell-based. Conditions: U-87MG ATCC. A general note: In western blotting, separated proteins are transferred to a membrane and probed.

For assay [7], the system named is A549. The assay is described as follows: Cytotoxicity against human A549 cells assessed as reduction in cell viability after 24 hrs by SRB assay. In kind it is functional, cell-based. In general terms: Sulforhodamine B stains cellular protein and so reports cell mass.
Assay [8] relates to U-87 MG. Put plainly: Antimigratory activity against human U87MG cells assessed as inhibition of cell migration measured after 6 hrs by scratch wound healing assay. It counts as functional, cell-based, U-87MG ATCC.
Assay [9] concerns NCI-H460. Put plainly: Antimigratory activity against human H460 cells assessed as inhibition of cell migration measured after 24 hrs by scratch wound healing assay. It counts as functional, cell-based.
The test system of assay [10] is U-87 MG. The assay is described as follows: Cytotoxicity against human U87MG cells assessed as effect on cell viability at 1 to 50 uM measured after 24 hrs by SRB assay. In kind it is functional, cell-based. Conditions: U-87MG ATCC.
In assay [11] the test system is U-87 MG. The assay is described as follows: Cytotoxicity against human U87MG cells assessed as effect on cell viability at 1 to 50 uM measured after 24 hrs by MTT assay. It counts as functional, cell-based. Conditions: U-87MG ATCC.
The test system of assay [12] is NCI-H460. Put plainly: Cytotoxicity against human H460 cells assessed as effect on cell viability at 1 to 50 uM measured after 24 hrs by SRB assay. In kind it is functional, cell-based.
For assay [13], the system named is U-87 MG. The assay is described as follows: Effect on CD73 mRNA expression in human U87MG cells at 10 to 25 uM measured after 1 to 6 hrs by RT-PCR analysis. In kind it is functional, cell-based. Conditions: U-87MG ATCC.
For assay [14], the system named is U-87 MG. The assay is described as follows: Antiinvasive activity against human U87MG cells assessed as reduction in cell invasion at 25 to 50 uM measured after 24 hrs using Diff-quick staining by light microscopy based Boyden chamber assay relative to control. In kind it is functional, U-87MG ATCC. Details: scale not given: the % may be the effect or the level left.

For assay [15], the target named is RNA demethylase ALKBH5 (Homo sapiens) (UniProt Q6P6C2). Put plainly: Inhibition of ALKBH5 demethylase activity in human U87MG cells assessed as decrease in CD73 expression at 10 uM measured after 1 hr by Western blot analysis. In kind it is cell-based. Conditions: U-87MG ATCC.
Sequence of RNA demethylase ALKBH5 (Homo sapiens) (Q6P6C2 2-394 limits assumed): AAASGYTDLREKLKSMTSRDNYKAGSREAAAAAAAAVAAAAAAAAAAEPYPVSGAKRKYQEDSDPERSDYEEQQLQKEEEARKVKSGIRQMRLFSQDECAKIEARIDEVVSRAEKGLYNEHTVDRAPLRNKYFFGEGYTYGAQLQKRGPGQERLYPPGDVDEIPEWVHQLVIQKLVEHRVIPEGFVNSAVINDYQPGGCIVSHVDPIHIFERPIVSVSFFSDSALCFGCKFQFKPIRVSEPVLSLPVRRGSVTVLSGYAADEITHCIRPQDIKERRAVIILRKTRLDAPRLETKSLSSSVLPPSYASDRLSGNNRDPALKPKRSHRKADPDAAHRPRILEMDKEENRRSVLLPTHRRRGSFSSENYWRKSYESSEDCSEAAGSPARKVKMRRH
The target is the same in assay [16]. The assay is described as follows: Inhibition of human recombinant ALKBH5 demethylase activity assessed as increase in methylated 6A-RNA level incubated for 30 min by dot blot analysis.
Assay [17] concerns U-87 MG. Put plainly: Antiinvasive activity against human U87MG cells assessed as reduction in cell invasion measured after 24 hrs using Diff-quick staining by light microscopy based Boyden chamber assay. In kind it is functional, U-87MG ATCC.
The target of assay [18] is RNA demethylase ALKBH5 (Homo sapiens) (UniProt Q6P6C2). Put plainly: Inhibition of ALKBH5 demethylase activity in human U87MG cells assessed as decrease in CD73 expression at 10 uM measured after 2 hrs by Western blot analysis. In kind it is cell-based. The note with it: U-87MG ATCC.
For assay [19] the target is unchanged. The assay is described as follows: Inhibition of human recombinant ALKBH5 demethylase activity assessed as increase in methylated 6A-RNA level at 10 to 25 uM incubated for 30 min by dot blot analysis relative to control.

The structures appear in SMILES notation. Calls of active or inactive are those of the source. No cut-off for these calls is given here.

Usually IC50 stands for the concentration that inhibits the measured activity by half. Regarding `CCCc1c(C)nc2c3ccccc3oc(=S)n12`, the Activity result with A549 [1] was “Dose-dependent effect”; in the assay with A549 [2] it was “Dose-dependent effect”; with NCI-H460 [5], “Dose-dependent effect”; in the assay with A549 [7], “Dose-dependent effect”; in the assay on U-87 MG [14] it was 90%; in the assay with U-87 MG [17] (U-87MG ATCC), “Dose-dependent effect”. Further, the IC50 in the assay on A549 [1] (A549, 24 h) worked out at 26.2 µM; in the assay on NCI-H460 [5] (NCI-H460, 24 h) it was 17.8 µM; with U-87 MG [8], 11 µM; in the assay on NCI-H460 [9] (NCI-H460, 24 h), 10.1 µM; in the assay on U-87 MG [17], 2.48 µM. Also, the result with A549 [3], in the assay on NCI-H460 [4], in the assay with U-87 MG [10], in the assay on U-87 MG [11], in the assay on NCI-H460 [12] and in the assay on U-87 MG [13] was inactive. The inhibition entry (in assay [6]; in the assay with U-87 MG [8] (U-87MG ATCC); with NCI-H460 [9]; in assay [16]) was “Dose-dependent effect” each time. Further, the inhibition entry in [15] and in assay [18] was “Active” each time. Besides, the fold change (FC) in assay [19] was 3.

Turning to `NC1=N[C@H](O)[C@H]2[C@H]3O[C@]4(O)O[C@@H]([C@@H](O)[C@@]2(N1)[C@@H]4O)[C@]3(O)CO`, in the assay on NCI-H460 [5], the Activity result was “Dose-dependent effect”.
